Here are results for 14 molecules from US7524853B2 (Solvay Pharmaceuticals B.V., priority 2003, dated 2009).

Assay type in all cases: cell-based
Test [1] has as its target T1, 17β-hydroxysteroid dehydrogenase type 1 (17β-HSD type 1) (Homo sapiens, UniProt P14061).
T1 construct: expressed in transfected cells; host or cells: MCF-7
T1 sequence (P14061 1-328): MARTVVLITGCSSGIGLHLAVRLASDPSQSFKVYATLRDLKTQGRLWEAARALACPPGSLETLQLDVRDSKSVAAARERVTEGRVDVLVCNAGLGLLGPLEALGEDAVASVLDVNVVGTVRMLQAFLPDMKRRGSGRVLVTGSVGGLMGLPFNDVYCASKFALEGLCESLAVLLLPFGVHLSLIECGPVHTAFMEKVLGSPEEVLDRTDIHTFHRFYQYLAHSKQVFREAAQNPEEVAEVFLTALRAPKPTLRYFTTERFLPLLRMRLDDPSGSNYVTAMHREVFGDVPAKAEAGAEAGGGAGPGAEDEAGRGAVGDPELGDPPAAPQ
Put plainly: Inhibition of 17β-HSD type 1 in MCF-7 cells stably expressing the isoenzyme (tritium labeled estrone conversion, HPLC). The following applies: MCF7, MCF-7 cells expressing 17β-HSD type 1, 2 nM tritium labeled estrone; for inhibition at 1 µM: 1 μM test compound, read-out: % Inhibition HSD1 1 μM; for inhibition at 10 µM: 10 μM test compound, read-out: % Inhibition HSD1 10 μM. A digest of the protocol:
(§1)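 Compounds are tested at two concentrations on MCF-7 cells carrying a single 17β-HSD isoenzyme, with 2 nM tritiated estrone, estradiol or androstenedione as type 1, 2 or 3 substrate. Percent inhibition reflects lower conversion relative to a compound-free control.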

The target in test [2] is T2, 17β-hydroxysteroid dehydrogenase type 2 (17β-HSD type 2) (Homo sapiens, UniProt P37059).
T2 construct: expressed in transfected cells; host or cells: MCF-7
T2 sequence (P37059 1-387): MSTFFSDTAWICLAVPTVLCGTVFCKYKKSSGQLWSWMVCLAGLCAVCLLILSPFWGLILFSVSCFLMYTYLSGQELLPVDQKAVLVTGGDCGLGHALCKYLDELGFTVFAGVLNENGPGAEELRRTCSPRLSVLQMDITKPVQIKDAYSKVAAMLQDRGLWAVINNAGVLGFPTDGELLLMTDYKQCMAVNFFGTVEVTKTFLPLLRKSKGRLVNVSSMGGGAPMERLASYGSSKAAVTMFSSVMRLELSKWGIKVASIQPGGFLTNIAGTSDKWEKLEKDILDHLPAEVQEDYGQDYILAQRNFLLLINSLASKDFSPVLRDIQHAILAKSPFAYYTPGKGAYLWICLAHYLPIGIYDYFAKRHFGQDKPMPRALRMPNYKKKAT
Put plainly: Inhibition of 17β-HSD type 2 in MCF-7 cells stably expressing the isoenzyme (tritium labeled estradiol conversion, HPLC). Conditions: MCF7, MCF-7 cells expressing 17β-HSD type 2, 2 nM tritium labeled estradiol; for inhibition at 1 µM: 1 μM test compound, read-out: % Inhibition HSD2 1 μM; for inhibition at 10 µM: 10 μM test compound, read-out: % Inhibition HSD2 10 μM. A digest of the protocol: as §1

The target of test [3] is T3, 17β-hydroxysteroid dehydrogenase type 3 (17β-HSD type 3) (Homo sapiens, UniProt P37058).
T3 construct: expressed in transfected cells; host or cells: MCF-7
T3 sequence (P37058 1-310): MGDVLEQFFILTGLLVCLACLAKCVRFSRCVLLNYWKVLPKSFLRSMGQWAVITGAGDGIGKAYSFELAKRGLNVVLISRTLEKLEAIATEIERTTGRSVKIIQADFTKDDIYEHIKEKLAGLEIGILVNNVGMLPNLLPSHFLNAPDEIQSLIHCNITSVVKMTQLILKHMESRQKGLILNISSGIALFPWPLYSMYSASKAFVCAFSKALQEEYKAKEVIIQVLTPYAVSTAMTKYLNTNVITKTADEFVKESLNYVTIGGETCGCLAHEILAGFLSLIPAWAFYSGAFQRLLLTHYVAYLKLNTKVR
Nature of the test: Inhibition of 17β-HSD type 3 in MCF-7 cells stably expressing the isoenzyme (tritium labeled androstenedione conversion, HPLC). Conditions: MCF7, MCF-7 cells expressing 17β-HSD type 3, 2 nM tritium labeled androstenedione; for inhibition at 1 µM: 1 μM test compound, read-out: % Inhibition HSD3 1 μM; for inhibition at 10 µM: 10 μM test compound, read-out: % Inhibition HSD3 10 μM. A digest of the protocol: as §1

Consider `COCc1nc2sc3c(c2c(=O)n1Cc1ccccc1)CCC(C=O)=C3Cl` [No. 34, 3-Benzyl-8-chloro-2-methoxymethyl-4-oxo-3,4,5,6-tetrahydro-benzo[4,5]thieno[2,3-d]pyrimidine-7-carbaldehyde], for which the inhibition at 1 µM is 12.5% in test [1], -1.5% in test [2] and 15.8% in test [3]. In addition, the inhibition at 10 µM in test [1] was found to be 64.2%; in test [2] it was 25.3%; in test [3] it was 100%.
As to `CCCCn1c(-c2cc(OC)c(OC)c(OC)c2)nc2sc3c(c2c1=O)CCC(Br)C3=O` (stereo not drawn) [No. 87, 7-Bromo-3-butyl-2-(3,4,5-trimethoxyphenyl)-6,7-dihydro-3H,5H-benzo[4,5]thieno[2,3-d]pyrimidine-4,8-dione], the inhibition at 1 µM in test [1] was 26.8%; in test [2], 24.6%; in test [3], 13%. Besides, the inhibition at 10 µM in test [1] worked out at 67.4%; in test [2] it was 23.4%; in test [3] it was 31.9%.
`COCCn1c(-c2cc(OC)c(OC)c(OC)c2Br)nc2sc3c(c2c1=O)CCC(Br)C3=O` (stereo not drawn) [No. 111, 7-Bromo-2-(2-bromo-3,4,5-trimethoxyphenyl)-3-(2-methoxyethyl)-6,7-dihydro-3H,5H-benzo[4,5]thieno[2,3-d]pyrimidine-4,8-dione]: the results for the inhibition at 1 µM in test [1], in test [2] and in test [3] were 23.8%, 24.7% and 7.3%, respectively. Besides, the results for the inhibition at 10 µM in test [1], in test [2] and in test [3] were 56.9%, 48.7% and 41.5%, respectively.
In the case of `CCCCn1c(-c2cc(OC)c(OC)c(O)c2Br)nc2sc3c(O)c(Br)c(C)cc3c2c1=O` [No. 699, 7-Bromo-2-(2-bromo-3-hydroxy4,5-dimethoxyphenyl)-3-butyl-8-hydroxy-6-methyl-3H-benzo[4,5]thieno[2,3-d]pyrimidin-4-one], the inhibition at 1 µM amounted to 5.9% in test [1], 16.1% in test [2] and 7.4% in test [3]. In addition, the inhibition at 10 µM stood at 7.3% in test [1], 19.6% in test [2] and 8.5% in test [3].
`CCC(C)Cn1c(-c2cc(OC)c(OC)c(OC)c2Cl)nc2sc3c(O)cccc3c2c1=O` (stereo not drawn) [No. 143, 2-(2-Chloro-3,4,5-trimethoxyphenyl)-8-hydroxy-3-(2-methylbutyl)-3H-benzo[4,5]thieno[2,3-d]pyrimidin-4-one]: the values for the inhibition at 1 µM in test [1], in test [2] and in test [3] were 40.1%, 4.5% and 12.5%, respectively. Also, the inhibition at 10 µM came out at 74.2% in test [1], 17.7% in test [2] and 52.1% in test [3].
In the case of `CCOC(=O)c1nc2sc3c(c2c(=O)n1-c1ccccc1)CCCC3` [No. 40, 4-Oxo-3-phenyl-3,4,5,6,7,8-hexahydro-benzo[4,5]thieno[2,3-d]pyrimidine-2-carboxylic acid ethyl ester], the figures for the inhibition at 1 µM in test [1], in test [2] and in test [3] were 15.6%, 13.8% and 3.8%, respectively. For the same molecule, the values for the inhibition at 10 µM in test [1], in test [2] and in test [3] were 25%, 5.3% and 16.2%, respectively.
On to `CCCc1nc2sc3c(c2c(=O)n1Cc1ccccc1OC)CCCC3` [No. 94, 3-(2-Methoxybenzyl)-2-propyl-5,6,7,8-tetrahydro-3H-benzo[4,5]thieno[2,3-d]pyrimidin-4-one], for which the inhibition at 1 µM was 16.5% in test [1], 25.7% in test [2] and 2.2% in test [3]. The inhibition at 10 µM turned out to be 27.2% in test [1], 31.5% in test [2] and 21.1% in test [3].
`COc1cc(-c2nc3sc4c(c3c(=O)n2CC(C)C)CCCC4)cc(OC)c1OC` [No. 113, 3-Isobutyl-2-(3,4,5-trimethoxyphenyl)-5,6,7,8-tetrahydro-3H-benzo[4,5]thieno[2,3-d]pyrimidin-4-one]: the inhibition at 1 µM in test [1] came out at 22.2%; in test [2], 8.2%; in test [3], 2.7%. The inhibition at 10 µM turned out to be 57.6% in test [1], 7.7% in test [2] and 48.9% in test [3].
In the case of `CCCCn1c(-c2cccs2)nc2sc3c(c2c1=O)CCCC3=O` [No. 134, 3-Butyl-2-thiophen-2-yl-6,7-dihydro-3H,5H-benzo[4,5]thieno[2,3-d]pyrimidine-4,8-dione], the results for the inhibition at 1 µM in test [1], in test [2] and in test [3] were 16%, 9.9% and 17.2%, respectively. Besides, the results for the inhibition at 10 µM in test [1], in test [2] and in test [3] were 7.9%, 11.6% and 21.6%, respectively.
Consider `O=C(OCCn1c(-c2cccs2)nc2sc3c(c2c1=O)CCC(Br)C3=O)c1cccs1` (stereo not drawn) [No. 71, Thiophene-2-carboxylic acid 2-(7-bromo-4,8-dioxo-2-thiohen-2-yl-5,6,7,8-tetrahydro-4H-benzo[4,5]thieno[2,3-d]pyrimidin-3-yl)-ethyl ester], for which the inhibition at 1 µM in test [1] came out at 20.7%; in test [2] it was 28.9%; in test [3], 21.9%. Also, the figures for the inhibition at 10 µM in test [1], in test [2] and in test [3] were 20.8%, 24.5% and 36%, respectively.
As to `O=c1c2c3c(sc2nc(-c2cc(O)c(O)c(O)c2)n1Cc1ccccc1)CCCC3` [No. 41, 3-Benzyl-2-(3,4,5-trihydroxyphenyl)-5,6,7,8-tetrahydro-3H-benzo[4,5]thieno[2,3-d]pyrimidin-4-one], the inhibition at 1 µM is 5.7% in test [1], 17.9% in test [2] and 22.5% in test [3]. For the same molecule, the inhibition at 10 µM stood at 10% in test [1], 17.7% in test [2] and 34.5% in test [3].
With `COc1cc(-c2nc3sc4c(c3c(=O)n2Cc2ccccc2)CCCC4O)cc(OC)c1OC` (stereo not drawn) [No. 145, 3-Benzyl-8-hydroxy-2-(3,4,5-trimethoxyphenyl)-5,6,7,8-tetrahydro-3H-benzo[4,5]thieno[2,3-d]pyrimidin-4-one], the inhibition at 1 µM in test [1] was 23.6%; in test [2], 25.9%; in test [3], 19.2%. The values for the inhibition at 10 µM in test [1], in test [2] and in test [3] were 21.2%, 25.7% and 21.6%, respectively.
`COc1cc(-c2nc3sc4c(c3c(=O)n2Cc2ccccc2)CCC(Br)C4=O)cc(OC)c1OC` (stereo not drawn) [No. 46, 3-benzyl-7-bromo-2-(3,4,5-trimethoxyphenyl)-6,7-dihydro-3H,5H-benzo[4,5]thieno[2,3-d]pyrimidine-4,8-dione]: the values for the inhibition at 1 µM in test [1], in test [2] and in test [3] were 32.1%, 44% and 31.4%, respectively. The inhibition at 10 µM was 72.2% in test [1], 20.9% in test [2] and 37.1% in test [3].
As to `O=C1c2sc3nc(-c4ccc(Br)s4)n(Cc4ccccc4)c(=O)c3c2CCC1(Br)Br` [No. 66, 3-Benzyl-7,7-dibromo-2-(5-bromothiophen-2-yl)-6,7-dihydro-3H,5H-benzo[4,5]thieno[2,3-d]pyrimidine-4,8-dione], the inhibition at 1 µM in test [1] was determined as 7.8%; in test [2], 27%; in test [3], 0.3%. Besides, the inhibition at 10 µM was determined as 8.9% in test [1], 37.6% in test [2] and 7.4% in test [3].

As a reminder, the inhibition is the change of the read-out against control, counted positive when it falls.
